Laboratory results reported in patent publication US20240000872A1, “NOVEL BACTERIOPHAGE THAT LYSES ACINETOBACTER GENUS BACTERIA HAVING RESISTANCE TO ANTIBIOTICS” (priority 2020, published 2024).

Tested on: Acinetobacter baumannii strains
Assay: Antibiotic susceptibility test (CLSI disk diffusion test method, read per CLSI 2016); on antibiotic susceptibility S/I/R: key: ‘S’ means susceptible; ‘I’ means intermediate; ‘R’ means resistant; on antibiotic susceptibility class: key: ‘S’ means susceptible; ‘I’ means intermediate; ‘R’ means resistant; on susceptibility category (S/I/R): key: ‘S’ means susceptible; ‘I’ means intermediate; ‘R’ means resistant
Assay type: cell-based
Set-up: antibiotic susceptibility test value / susceptibility test value (number given before S/I/R) / antibiotic susceptibility value: unit not given here

colistin
antibiotic susceptibility class (host strain YMC14/01/C29): S | antibiotic susceptibility test value (host strain YMC14/01/C29): 0.5 | antibiotic susceptibility class (host strain YMC14/01/IP122): S | antibiotic susceptibility test value (host strain YMC14/01/IP122): 0.5 | antibiotic susceptibility class (host strain YMC14/01/L8): S | antibiotic susceptibility test value (host strain YMC14/01/L8): 0.5 | antibiotic susceptibility class (host strain YMC14/01/P31): S | antibiotic susceptibility test value (host strain YMC14/01/P31): 0.5 | antibiotic susceptibility class (host strain YMC14/01/P117): S | antibiotic susceptibility test value (host strain YMC14/01/P117): 0.5 | antibiotic susceptibility class (host strain YMC14/01/P224): S | antibiotic susceptibility test value (host strain YMC14/01/P224): 0.5 | antibiotic susceptibility class (host strain YMC14/01/P727): S | antibiotic susceptibility test value (host strain YMC14/01/P727): 0.5 | antibiotic susceptibility class (host strain YMC14/01/P728): S | antibiotic susceptibility test value (host strain YMC14/01/P728): 0.5 | antibiotic susceptibility class (host strain YMC14/01/R130): S | antibiotic susceptibility test value (host strain YMC14/01/R130): 0.5 | antibiotic susceptibility class (host strain YMC14/01/R160): S | antibiotic susceptibility test value (host strain YMC14/01/R160): 0.5 | antibiotic susceptibility class (host strain YMC14/01/R198): S | antibiotic susceptibility test value (host strain YMC14/01/R198): 0.5 | antibiotic susceptibility class (host strain YMC14/01/R257): S | antibiotic susceptibility test value (host strain YMC14/01/R257): 0.5 | antibiotic susceptibility class (host strain YMC14/01/R270): S | antibiotic susceptibility test value (host strain YMC14/01/R270): 0.5 | antibiotic susceptibility class (host strain YMC14/01/R324): S | antibiotic susceptibility test value (host strain YMC14/01/R324): 0.5 | antibiotic susceptibility class (host strain YMC14/01/R443): S | antibiotic susceptibility test value (host strain YMC14/01/R443): 0.5 | antibiotic susceptibility class (host strain YMC14/01/R451): S | antibiotic susceptibility test value (host strain YMC14/01/R451): 0.5 | antibiotic susceptibility class (host strain YMC14/01/R560): S | antibiotic susceptibility test value (host strain YMC14/01/R560): 0.5 | antibiotic susceptibility class (host strain YMC14/01/R617): S | antibiotic susceptibility test value (host strain YMC14/01/R617): 0.5 | antibiotic susceptibility class (host strain YMC14/01/R671): S | antibiotic susceptibility test value (host strain YMC14/01/R671): 0.5 | antibiotic susceptibility class (host strain YMC14/01/R732): S | antibiotic susceptibility test value (host strain YMC14/01/R732): 0.5 | antibiotic susceptibility class (host strain YMC14/01/R767): S | antibiotic susceptibility test value (host strain YMC14/01/R767): 0.5 | antibiotic susceptibility class (host strain YMC14/01/R904): S | antibiotic susceptibility test value (host strain YMC14/01/R904): 0.5 | antibiotic susceptibility class (host strain YMC14/01/R905): S | antibiotic susceptibility test value (host strain YMC14/01/R905): 0.5 | antibiotic susceptibility class (host strain YMC14/01/R921): S | antibiotic susceptibility test value (host strain YMC14/01/R921): 0.5 | antibiotic susceptibility class (host strain YMC14/01/R941): S | antibiotic susceptibility test value (host strain YMC14/01/R941): 0.5 | antibiotic susceptibility class (host strain YMC14/01/R958): S | antibiotic susceptibility test value (host strain YMC14/01/R958): 0.5 | antibiotic susceptibility class (host strain YMC14/01/R1006): S | antibiotic susceptibility test value (host strain YMC14/01/R1006): 0.5 | antibiotic susceptibility class (host strain YMC14/01/R1199): S | antibiotic susceptibility test value (host strain YMC14/01/R1199): 0.5 | antibiotic susceptibility class (host strain YMC14/01/R1659): S | antibiotic susceptibility test value (host strain YMC14/01/R1659): 0.5 | antibiotic susceptibility class (host strain YMC14/01/R1722): S | antibiotic susceptibility test value (host strain YMC14/01/R1722): 0.5 | antibiotic susceptibility class (host strain YMC14/01/R1752): S | antibiotic susceptibility test value (host strain YMC14/01/R1752): 0.5 | antibiotic susceptibility class (host strain YMC14/01/R2429): S | antibiotic susceptibility test value (host strain YMC14/01/R2429): 0.5 | antibiotic susceptibility class (host strain YMC14/01/R2572): S | antibiotic susceptibility test value (host strain YMC14/01/R2572): 0.5 | antibiotic susceptibility class (host strain YMC14/01/R2855): S | antibiotic susceptibility test value (host strain YMC14/01/R2855): 0.5 | antibiotic susceptibility class (host strain YMC14/01/R2945): S | antibiotic susceptibility test value (host strain YMC14/01/R2945): 0.5 | antibiotic susceptibility class (host strain YMC14/01/R3007): S | antibiotic susceptibility test value (host strain YMC14/01/R3007): 0.5 | antibiotic susceptibility class (host strain YMC14/01/R3129): S | antibiotic susceptibility test value (host strain YMC14/01/R3129): 0.5 | antibiotic susceptibility class (host strain YMC14/01/R3317): S | antibiotic susceptibility test value (host strain YMC14/01/R3317): 0.5 | antibiotic susceptibility class (host strain YMC14/01/R3474): S | antibiotic susceptibility test value (host strain YMC14/01/R3474): 0.5 | antibiotic susceptibility class (host strain YMC14/01/R3574): S | antibiotic susceptibility test value (host strain YMC14/01/R3574): 0.5 | antibiotic susceptibility class (host strain YMC14/01/U313): S | antibiotic susceptibility test value (host strain YMC14/01/U313): 0.5 | antibiotic susceptibility class (host strain YMC14/01/U318): S | antibiotic susceptibility test value (host strain YMC14/01/U318): 0.5 | antibiotic susceptibility class (host strain YMC14/02/L18): S | antibiotic susceptibility test value (host strain YMC14/02/L18): 0.5 | antibiotic susceptibility class (host strain YMC14/02/P47): S | antibiotic susceptibility test value (host strain YMC14/02/P47): 0.5 | antibiotic susceptibility class (host strain YMC14/02/R1860): S | antibiotic susceptibility test value (host strain YMC14/02/R1860): 0.5 | antibiotic susceptibility class (host strain YMC14/02/R2417): S | antibiotic susceptibility test value (host strain YMC14/02/R2417): 0.5 | antibiotic susceptibility class (host strain YMC14/02/R2599): S | antibiotic susceptibility test value (host strain YMC14/02/R2599): 0.5 | antibiotic susceptibility class (host strain YMC14/02/R2668): S | antibiotic susceptibility test value (host strain YMC14/02/R2668): 0.5 | antibiotic susceptibility class (host strain YMC14/02/R2758): S | antibiotic susceptibility test value (host strain YMC14/02/R2758): 0.5 | antibiotic susceptibility class (host strain YMC14/02/R2781): S | antibiotic susceptibility test value (host strain YMC14/02/R2781): 0.5 | antibiotic susceptibility class (host strain YMC14/02/R3106): S | antibiotic susceptibility test value (host strain YMC14/02/R3106): 0.5 | antibiotic susceptibility class (host strain YMC14/02/R3419): S | antibiotic susceptibility test value (host strain YMC14/02/R3419): 0.5 | antibiotic susceptibility class (host strain YMC14/02/U1607): S | antibiotic susceptibility test value (host strain YMC14/02/U1607): 0.5 | antibiotic susceptibility class (host strain YMC14/03/L9): S | antibiotic susceptibility test value (host strain YMC14/03/L9): 0.5 | antibiotic susceptibility class (host strain YMC14/03/P471): S | antibiotic susceptibility test value (host strain YMC14/03/P471): 0.5 | antibiotic susceptibility class (host strain YMC14/03/R122): S | antibiotic susceptibility test value (host strain YMC14/03/R122): 0.5 | antibiotic susceptibility class (host strain YMC14/03/R217): S | antibiotic susceptibility test value (host strain YMC14/03/R217): 0.5 | antibiotic susceptibility class (host strain YMC14/03/R380): S | antibiotic susceptibility test value (host strain YMC14/03/R380): 0.5 | antibiotic susceptibility class (host strain YMC14/03/R618): S | antibiotic susceptibility test value (host strain YMC14/03/R618): 0.5 | antibiotic susceptibility class (host strain YMC14/03/R2144): S | antibiotic susceptibility test value (host strain YMC14/03/R2144): 0.5 | antibiotic susceptibility class (host strain YMC14/03/U4616): S | antibiotic susceptibility test value (host strain YMC14/03/U4616): 0.5 | antibiotic susceptibility class (host strain YMC14/04/R1078): S | antibiotic susceptibility test value (host strain YMC14/04/R1078): 0.5 | antibiotic susceptibility class (host strain YMC14/04/R1080): S | antibiotic susceptibility test value (host strain YMC14/04/R1080): 0.5 | antibiotic susceptibility S/I/R (host strain YMC14/06/R2359): R | antibiotic susceptibility value (host strain YMC14/06/R2359): 16 | susceptibility category (S/I/R) (host strain YMC14/06/R2359): R | susceptibility test value (number given before S/I/R) (host strain YMC14/06/R2359): 16 | antibiotic susceptibility S/I/R (host strain YMC14/08/R1169): R | antibiotic susceptibility value (host strain YMC14/08/R1169): 16 | susceptibility category (S/I/R) (host strain YMC14/08/R1169): R | susceptibility test value (number given before S/I/R) (host strain YMC14/08/R1169): 16 | antibiotic susceptibility S/I/R (host strain YMC14/08/T90): R | antibiotic susceptibility value (host strain YMC14/08/T90): 16 | susceptibility category (S/I/R) (host strain YMC14/08/T90): R | susceptibility test value (number given before S/I/R) (host strain YMC14/08/T90): 16 | antibiotic susceptibility S/I/R (host strain YMC15/02/R436): R | antibiotic susceptibility value (host strain YMC15/02/R436): 8 | susceptibility category (S/I/R) (host strain YMC15/02/R436): R | susceptibility test value (number given before S/I/R) (host strain YMC15/02/R436): 8 | antibiotic susceptibility S/I/R (host strain YMC15/02/T28): R | antibiotic susceptibility value (host strain YMC15/02/T28): 16 | susceptibility category (S/I/R) (host strain YMC15/02/T28): R | susceptibility test value (number given before S/I/R) (host strain YMC15/02/T28): 16 | antibiotic susceptibility S/I/R (host strain YMC15/03/R1604): R | antibiotic susceptibility value (host strain YMC15/03/R1604): 16 | susceptibility category (S/I/R) (host strain YMC15/03/R1604): R | susceptibility test value (number given before S/I/R) (host strain YMC15/03/R1604): 16 | antibiotic susceptibility S/I/R (host strain YMC15/09/R1869): R | antibiotic susceptibility value (host strain YMC15/09/R1869): 16 | susceptibility category (S/I/R) (host strain YMC15/09/R1869): R | susceptibility test value (number given before S/I/R) (host strain YMC15/09/R1869): 16 | antibiotic susceptibility S/I/R (host strain YMC16/01/P11): S | antibiotic susceptibility value (host strain YMC16/01/P11): 0.5 | susceptibility category (S/I/R) (host strain YMC16/01/P11): S | susceptibility test value (number given before S/I/R) (host strain YMC16/01/P11): 0.5 | antibiotic susceptibility S/I/R (host strain YMC16/01/R123): S | antibiotic susceptibility value (host strain YMC16/01/R123): 0.5 | susceptibility category (S/I/R) (host strain YMC16/01/R123): S | susceptibility test value (number given before S/I/R) (host strain YMC16/01/R123): 0.5 | antibiotic susceptibility S/I/R (host strain YMC16/01/R198): S | antibiotic susceptibility value (host strain YMC16/01/R198): 0.5 | susceptibility category (S/I/R) (host strain YMC16/01/R198): S | susceptibility test value (number given before S/I/R) (host strain YMC16/01/R198): 0.5 | antibiotic susceptibility S/I/R (host strain YMC16/01/R353): S
